Our source for the IC50 values is patent publication US20240409530A1, “Disubstituted Pyrimidine Compounds for Ketohexokinase Inhibition” (Centennial Therapeutics, LLC, priority 2023, published 2024).

The target of assay [1] is Human recombinant KHK-C (Homo sapiens (Human), UniProt P50053). Put plainly: KHK inhibition assay, recombinant isozyme (coupled pyruvate kinase/LDH, NADH absorbance 340 nm). Format: biochemical. The note with it: recombinant isozyme 6 nM, fructose 2 mM, ATP 0.1 mM. On the procedure: (§1) Determination of Human and Rat recombinant KHK-A and KHK-C isozyme IC50 Values
(§2) An assay reagent cocktail was prepared by combining NADH, water, TEA, KCl, MgCl2, PEP, ATP, DTT, coupling enzymes (pyruvate kinase and lactate dehydrogenase, LDH) to final concentrations as shown in Table B.
(§3) To this was added the relevant KHK isozyme to a final concentration of 6 nM. Aliquots of each inhibitor compound were diluted via 5-fold serial dilutions to produce final concentrations ranging from 1000 nM to 0.064 nM. The inhibitor aliquots were added to the assay reagent cocktail containing KHK with fructose (at a concentration of 2 mM) in a 96-well plate. The absorbance at 340 nm was measured via spectrophotometry and inhibition was analyzed using non-linear regression.

In assay [2] the target is Rat recombinant KHK-C (Rattus norvegicus (Rat), UniProt Q02974). The assay is described as above. To be noted: recombinant isozyme 6 nM, fructose 2 mM, ATP 0.1 mM. Type of assay: biochemical. On the procedure: as §1, §2, §3
Assay [3] deals with Rat recombinant KHK-A (Rattus norvegicus (Rat), UniProt Q02974). The description is as above. Type of assay: biochemical. To be noted: recombinant isozyme 6 nM, fructose 2 mM, ATP 0.1 mM. Here is the method: as §1, §2, §3
Assay [4] concerns the target Human recombinant KHK-A (Homo sapiens (Human), UniProt P50053). The description is as above. Type of assay: biochemical. The note with it: recombinant isozyme 6 nM, fructose 2 mM, ATP 0.1 mM. On the procedure: as §1, §2, §3
In assay [5] the target is human KHK in HepG2 Cells (Homo sapiens (Human), UniProt P50053). Put plainly: Cell-based potency assay (HepG2 assay), F1P by LC/MS. The note with it: fructose 20 mM, 20 min, F1P produced. Here is the method:
Testing inhibition effect of compounds against human KHK in HepG2 Cells
HepG2 cells were grown in RPMI1640 supplemented media on 100 mm plates to near confluency (about 5-8×10^6 cells). The growth media was aspirated and 4 mL trypsin solution (0.25% (w/v)+0.25% (w/v) EDTA) was added, followed by incubation at 37° C. for 5-10 mins. The cells were pelleted and resuspended in 2 mL complete media.
The cells were then placed in a 96 well plate at 20,000-50,000 cells per well and grown for 20-28 hours at 37° C. to allow adherence.
Inhibitor compounds were diluted in DMSO to 50 μM, then serially diluted with MEM media (ThermoFisher). Final inhibitor concentration ranged from 1000 nM to 0.064 nM (5-fold dilution series).
The RPMI medium was removed from the plate of confluent cells. The plate was then incubated for 35 min at 37°, after which were added 0.1 mL of the diluted inhibitor compounds in MEM with fructose, 0.1 mL of MEM media without inhibitor compound or fructose, or trypsin; yielding a final concentration of fructose at 20 mM. The plate was subsequently incubated for 20 min at 37°, then placed on ice to stop the reactions.
Next, 200 μL of cold 80% (v/v) methanol:water was added to all wells, except the controls used to enumerate cell count. The plate was vortexed and cell debris removed by centrifugation. To measure F1P produced, the resulting supernatant fraction was analyzed by LC/MS.

Assay [6] has as its target human KHK-C in engineered HepG2 cells (Homo sapiens (Human), UniProt P50053). As to the kind of experiment: Cell-based potency assay (KHK-C-overexpressing HepG2 assay), F1P by LC/MS. To be noted: fructose 30 mM, 5 min, F1P produced, geomean. On the procedure: Testing inhibition effect of compounds against human KHK-C in engineered HepG2 cells.
Engineered HepG2 cells were generated using methods known to those of skill in the art. Briefly, HepG2 cells were incubated with lentivirus carrying a transgene encoding human KHK-C, and grown under antibiotic selection.
KHK-C-overexpressing HepG2 cells were grown in RPMI1640 supplemented media on T-182 cm^2 flask to near confluency (about 25-40×10^6 cells). The growth media was aspirated, the flask was washed with 10 mL PBS, and 4 mL trypsin solution (0.25% (w/v)+0.25% (w/v) EDTA) was added, followed by incubation at 37° C. for 3-5 mins. The cells were pelleted and resuspended in 2 mL complete media.
The cells were then placed in a 96-well plate at 20,000-40,000 cells per well and grown for 20-28 hours at 37° C. to allow adherence.
Inhibitor compounds were diluted in DMSO to 50 μM, then serially diluted with MEM media (ThermoFisher). Final inhibitor concentration ranged from 5000 nM to 0.32 nM.
The RPMI medium was removed from the plate of confluent cells. The plate was then incubated for 35 min at 37° C. with 0.1 mL of the diluted inhibitor compounds in MEM. After, an additional 0.1 mL of the diluted inhibitor compounds in MEM with fructose, or 0.1 mL of MEM media without inhibitor compound and/or fructose; yielding a final concentration of fructose at 30 mM was added. The plate was subsequently incubated for 5 min at 37° C., then placed on ice to stop the reactions.
Next 200 μL of cold 80% (v/v) methanol:water was added to al wells and placed in the −80° C. freezer for 1 hour with an adhesive seal. The plate was vortexed and cell debris removed by centrifugation. To measure F1P produced, the resulting supernatant fraction was analyzed by LC/MS.

pIC50: −log10 of the molar value.

Chain of Human recombinant KHK-A (P50053 other isoform, or with tags, fused parts or gaps): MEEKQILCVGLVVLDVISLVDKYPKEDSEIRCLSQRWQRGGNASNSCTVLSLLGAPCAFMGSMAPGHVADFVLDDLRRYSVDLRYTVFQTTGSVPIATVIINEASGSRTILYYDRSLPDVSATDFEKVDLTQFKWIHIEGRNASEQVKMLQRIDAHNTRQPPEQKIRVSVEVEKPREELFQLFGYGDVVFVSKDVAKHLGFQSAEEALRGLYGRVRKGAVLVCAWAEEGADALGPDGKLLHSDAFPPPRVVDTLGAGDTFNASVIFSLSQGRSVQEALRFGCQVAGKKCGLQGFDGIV
Chain of Rat recombinant KHK-C (Q02974 whole entry): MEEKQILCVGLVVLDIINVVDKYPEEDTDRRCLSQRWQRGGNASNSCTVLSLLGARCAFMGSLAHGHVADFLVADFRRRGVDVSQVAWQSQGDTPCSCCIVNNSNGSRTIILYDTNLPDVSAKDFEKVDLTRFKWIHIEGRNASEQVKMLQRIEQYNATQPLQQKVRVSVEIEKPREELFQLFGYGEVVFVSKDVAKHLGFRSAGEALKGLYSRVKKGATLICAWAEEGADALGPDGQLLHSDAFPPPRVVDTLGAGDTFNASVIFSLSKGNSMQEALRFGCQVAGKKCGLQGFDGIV
Chain of Rat recombinant KHK-A (Q02974 other isoform, or with tags, fused parts or gaps): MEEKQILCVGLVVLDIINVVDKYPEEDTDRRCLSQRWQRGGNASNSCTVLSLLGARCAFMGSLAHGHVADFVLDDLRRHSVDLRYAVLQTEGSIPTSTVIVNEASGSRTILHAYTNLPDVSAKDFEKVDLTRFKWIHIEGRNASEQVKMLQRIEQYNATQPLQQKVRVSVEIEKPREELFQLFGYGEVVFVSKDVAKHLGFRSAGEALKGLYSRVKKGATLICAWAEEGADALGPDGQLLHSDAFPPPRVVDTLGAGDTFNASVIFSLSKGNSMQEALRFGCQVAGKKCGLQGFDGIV
Chain of human KHK-C in engineered HepG2 cells (P50053 whole entry, stated change not applied): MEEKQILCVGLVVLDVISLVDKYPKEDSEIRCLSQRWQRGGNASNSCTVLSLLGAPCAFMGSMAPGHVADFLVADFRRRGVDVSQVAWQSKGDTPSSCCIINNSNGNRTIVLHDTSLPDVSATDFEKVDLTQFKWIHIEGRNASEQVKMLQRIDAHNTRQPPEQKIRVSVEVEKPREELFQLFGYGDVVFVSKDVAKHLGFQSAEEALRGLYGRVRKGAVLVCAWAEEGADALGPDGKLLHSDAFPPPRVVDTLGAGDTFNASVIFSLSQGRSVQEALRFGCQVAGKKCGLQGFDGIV
Chain of Human recombinant KHK-C (P50053 whole entry): as the sequence (P50053 whole entry, stated change not applied) above
Chain of human KHK in HepG2 Cells (P50053 whole entry): as the sequence (P50053 whole entry, stated change not applied) above

Turning to `Cc1c(-c2cnn(C3CNC3)c2)nc(N2C[C@@H](O)[C@@H]2C)nc1C(F)F` [Compound A35, (2S,3R)-1-{4-[1-(3-azetidinyl)-4-pyrazolyl]-6-(difluoromethyl)-5-methyl-2-pyrimidinyl}-2-methyl-3-azetidinol], the pIC50 in assay [1] was 8.31; in assay [2], 8.11; in assay [3], 8.39; in assay [4] it was 8.72; in assay [5] it was 8.05; in assay [6], 7.09.
For `Cc1c(-c2cnn(C3CN(C)C3)c2)nc(N2C[C@@H](O)[C@@H]2C)nc1C(F)F` [Compound A21, (2S,3R)-1-{6-(difluoromethyl)-5-methyl-4-[1-(1-methyl-3-azetidinyl)-4-pyrazolyl]-2-pyrimidinyl}-2-methyl-3-azetidinol], the negative logarithm of the IC50 (pIC50) is 8.82 in assay [1]; 8.48 in assay [2]; 8.84 in assay [3]; 8.69 in assay [4]; 8.70 in assay [5]; 7.44 in assay [6].
As for `C[C@H]1[C@H](O)CN1c1nc(-c2cnn(C3CN(C)C3)c2)cc(C(F)(F)F)n1` [Compound C3, reference compound], the negative logarithm of the IC50 (pIC50) was 8.40 in assay [5] and 6.72 in assay [6].
On to `Cc1c(-c2cnn(C3CN(C)C3)c2)nc(N2C[C@@H](O)[C@@H]2C)nc1C(F)(F)F` [Compound A12, (2S,3R)-2-methyl-1-{5-methyl-4-[1-(1-methyl-3-azetidinyl)-4-pyrazolyl]-6-(trifluoromethyl)-2-pyrimidinyl}-3-azetidinol], for which the pIC50 in assay [1] was 8.98; in assay [2], 8.48; in assay [3] it was 8.89; in assay [4], 8.39; in assay [5] it was 9.00; in assay [6] it was 7.47.
Turning to `C[C@H]1CCN1c1nc(-c2cnn(CC(=O)N3CCNCC3)c2)cc(C(F)(F)F)n1` [Compound C2, reference compound], the results for the pIC50 in assay [5] and in assay [6] were 7.04 and 6.34, respectively.
As for `Cc1c(-c2cnn(CC(=O)N3CCNCC3)c2)nc(N2CC[C@@H]2C)nc1C(F)(F)F` [Compound A3, 2-(4-{2-[(S)-2-methyl-1-azetidinyl]-5-methyl-6-(trifluoromethyl)-4-pyrimidinyl}-1-pyrazolyl)-1-(1-piperazinyl)-1-ethanone], the negative logarithm of the IC50 (pIC50) in assay [1] is 8.13; in assay [2], 8.08; in assay [3], 8.54; in assay [4] it was 8.34; in assay [5], 7.60; in assay [6], 6.73.
Consider `C[C@H]1[C@H](O)CN1c1nc(-c2cnn(C3CN(C)C3)c2)cc(C(F)F)n1` [Compound A9, (2S,3R)-1-{6-(difluoromethyl)-4-[1-(1-methyl-3-azetidinyl)-4-pyrazolyl]-2-pyrimidinyl}-2-methyl-3-azetidinol], for which the pIC50 in assay [1] was 7.39; in assay [2] it was 7.43; in assay [3], 8.00; in assay [4], 7.66; in assay [6] it was 6.74.
